Earlier results as cited in patent US8709476B2, “Compositions of quaternary ammonium compounds containing bioavailability enhancers” (Supernus Pharmaceuticals, Inc., priority 2003, dated 2014).

Conditions: in humans; oral dosage form

SMILES: O=C(O[C@H]1C[C@H]2CC[C@@H](C1)[N+]21CCCC1)C(O)(c1ccccc1)c1ccccc1 [Trospium chloride]
- bioavailability: up to 10%
